Data set [1] can be described thus: Solubility by aliquot addition of test solvent with visual inspection. Format: physicochemical. As to conditions: solution from solubility test. From the text: Whether dissolution had occurred was judged by visual inspection after addition of each solvent aliquot.
Data set [2] is described as follows: Dynamic vapor sorption (DVS) analysis of salts. Format: physicochemical. The conditions noted are these: for loss upon drying at 5% RH / gain from 5 to 95% RH / loss from 95 to 5% RH: DVS isotherm graph; for gain from 5 to 95% RH: adsorption cycle; for loss from 95 to 5% RH: desorption cycle. The protocol:
The crystalline adipate, benzoate, and tosylate salts were characterized with XRPD, DSC, TGA, and DVS. The DVS analyses were carried out using TA Instruments Q5000 Dynamic Vapor Sorption analyzer. The instrument was calibrated with standard weights and a sodium bromide standard for humidity.

For data set [3], the system named is acute myeloid leukemia (AML). As to conditions: AML mouse models and human-patient-derived xenograph mouse models; cited from earlier work.
A short description of data set [4]: Bulk density of the ditosylate salt. It counts as physicochemical.
The target of another data set is CK1α (Homo sapiens, UniProt P48729). The conditions noted are these: cited from earlier work.
Data set [5] deals with Ser 45 β-catenin phosphorylation; p53 and β-catenin protein expression. The conditions noted are these: cited from earlier work.
A further data set relates to Myc, MDM2, and MCL1. The conditions noted are these: cited from earlier work.
The mark [6] stands for this setting: indicated by DVS isotherm graph.

Counter-ions that a name gives are not always drawn. Like-named read-outs stand apart in the source and are kept apart here.

This is an account of results in US12428399B2, “Non-hygroscopic crystalline salts of a pyrazole compound, and pharmaceutical compositions and use thereof” (Yissum Research Development Company of the Hebrew …, priority 2019, dated 2025).

CK1α, sequence (P48729 whole entry): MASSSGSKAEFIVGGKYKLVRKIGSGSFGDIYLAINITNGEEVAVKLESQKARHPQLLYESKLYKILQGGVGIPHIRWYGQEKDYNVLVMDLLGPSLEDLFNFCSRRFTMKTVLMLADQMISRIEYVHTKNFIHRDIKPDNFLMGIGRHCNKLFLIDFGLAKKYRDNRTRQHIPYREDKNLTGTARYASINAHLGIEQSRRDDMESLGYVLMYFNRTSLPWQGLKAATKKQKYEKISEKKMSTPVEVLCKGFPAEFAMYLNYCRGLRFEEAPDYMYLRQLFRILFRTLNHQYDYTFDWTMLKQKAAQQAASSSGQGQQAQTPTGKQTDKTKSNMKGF

In the case of `Cn1ncc(-c2nc(NC3CCC(N)CC3)ncc2Cl)c1CC1CC1` (stereo not drawn) [benzoate salt, (1r,4r)-N^1-(5-chloro-4-(5-(cyclopropylmethyl)-1-methyl-1H-pyrazol-4-yl)pyrimidin-2-yl)cyclohexane-1,4-diamine], in data set [1] (listed as Benzoate), the “pH of Solution” value came out at 4.31. In data set [2], the “loss upon drying at 5% RH” value is reported as 0.02%, the “gain from 5 to 95% RH” value was found to be 1.20% and the “loss from 95 to 5% RH” value is 1.30%.
As for `Cl.Cl.Cn1ncc(-c2nc(N[C@H]3CC[C@H](N)CC3)ncc2Cl)c1CC1CC1` [dihydrochloride salt, (1r,4r)-N^1-(5-chloro-4-(5-(cyclopropylmethyl)-1-methyl-1H-pyrazol-4-yl)pyrimidin-2-yl)cyclohexane-1,4-diamine dihydrochloride, reference compound], the “pH of Solution” value in data set [1] is 1.55. Also, the “treating acute myeloid leukemia (AML)” value in data set [3] was “effective”. Also, in data set [2], the “loss upon drying at 5% RH” value was 1.2%, the “gain from 5 to 95% RH” value was found to be 17% and the “loss from 95 to 5% RH” value was 16%. In addition, in data set [2] (background statement, no method given there), the hygroscopicity result is reported as “highly hygroscopic”. Further, in data set [2] (setting [6]), the hygroscopicity result was “highly hygroscopic”.
With `Cn1ncc(-c2nc(NC3CCC(N)CC3)ncc2Cl)c1CC1CC1` (stereo not drawn) [ditosylate salt, (1r,4r)-N^1-(5-chloro-4-(5-(cyclopropylmethyl)-1-methyl-1H-pyrazol-4-yl)pyrimidin-2-yl)cyclohexane-1,4-diamine], where the note is “25° C./60% RH, 6-Month”, the “Assay by HPLC (as free base)” value is recorded as 100.5 % w/w, the “Purity by HPLC” value worked out at 99.8 % area, the “Water contectnt by Karl Fisher” value was found to be 0.41 % w/w and the “pTSA content by HPLC” value was determined as 48.6 % w/w. For the setting “25° C./60% RH, Initial”, the “Assay by HPLC (as free base)” value is recorded as 100.5 % w/w, the “Purity by HPLC” value came out at 99.8 % area, the “Water contectnt by Karl Fisher” value was 0.41 % w/w and the “pTSA content by HPLC” value is 49.9 % w/w. For the setting “40° C./75% RH, 6-Month”, the “Assay by HPLC (as free base)” value is 100.3 % w/w, the “Purity by HPLC” value worked out at 99.8 % area, the “Water contectnt by Karl Fisher” value is on record as 0.58 % w/w and the “pTSA content by HPLC” value is reported as 49.5 % w/w. Moreover, for the setting “40° C./75% RH, Initial”, the “Assay by HPLC (as free base)” value was 100.5 % w/w, the “Purity by HPLC” value worked out at 99.8 % area, the “Water contectnt by Karl Fisher” value worked out at 0.41 % w/w and the “pTSA content by HPLC” value is listed as 49.9 % w/w. The bulk density in data set [4] is 0.377 g/mL. For the same compound, in data set [1], the “pH of Solution” value is recorded as 5.82. The hygroscopicity result in data set [2] (setting [6]) is “not hygroscopic”.
For the compound `Cn1ncc(-c2nc(N[C@H]3CC[C@H](N)CC3)ncc2Cl)c1CC1CC1` [the Compound, (1r,4r)-N^1-(5-chloro-4-(5-(cyclopropylmethyl)-1-methyl-1H-pyrazol-4-yl)pyrimidin-2-yl)cyclohexane-1,4-diamine], on CK1α, the CK1α inhibition result is reported as “inhibitor”. Besides, in data set [5], the “Ser 45 β-catenin phosphorylation” value is given as “reduces”; the “p53 and β-catenin protein expression” value is “increases”. Moreover, the “expression of key cancer initiating genes, including Myc, MDM2, and MCL1” value in the data set on Myc, MDM2, and MCL1 is given as “significantly reduces”.
For the compound “(1r,4r)-N^1-(5-chloro-4-(5-(cyclopropylmethyl)-1-methyl-1H-pyrazol-4-yl)pyrimidin-2-yl)cyclohexane-1,4-diamine [adipate salt]”, the “pH of Solution” value in data set [1] is on record as 4.73. Further, in data set [2], the “loss upon drying at 5% RH” value was 0.05%, the “gain from 5 to 95% RH” value worked out at 1.05% and the “loss from 95 to 5% RH” value turned out to be 1.11%. Besides, in data set [2] (setting [6]), the hygroscopicity result is reported as “not hygroscopic”.
